The values that follow come from the supplement of paper PMC11061612.

Each structure is given as a SMILES string.

What all share (test): combination Emax (second highest fraction inhibited in the dose matrix, 72 h); higher = more inhibition; extreme values may be limits of the assay
Assay [1] relates to SW1710 (Bladder Carcinoma). In short, it runs like this:
(§1)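 After 24 hours at 37°C and 5% CO2 in 1536-well plates, cells in DMEM/F12 or RPMI plus 10% FBS received two-drug dose matrices for 72 hours. Viability came from CellTiter-Glo 2.0 luminescence and was scaled as inhibition, anchored at 0 by vehicle wells and at 1 by blank wells. Combination Emax is taken as the second-highest inhibition in the matrix, and Bliss excess as the observed combination effect less EA + EB − EA·EB, with EA and EB the single-agent effects.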

In assay [2] the test system is BPH-1 (Non-Cancerous). In short, it runs like this: as §1
Assay [3] relates to HuH-7 (Hepatocellular Carcinoma). In a few lines: as §1
Assay [4] deals with YAPC (Pancreatic Carcinoma). In a few lines: as §1
Assay [5] relates to WSU-NHL (B-Cell Non-Hodgkin's Lymphoma). In a few lines:
as §1

Assay [6] concerns LS-123 (Colorectal Carcinoma). In short, it runs like this: as §1
The subject of assay [7] is KS-1 (Glioblastoma). In a few lines:
as §1

Assay [8] has as its system OV-56 (Ovarian Carcinoma). In a few lines:
as §1

The test system of assay [9] is NCI-H1568 (Lung Adenocarcinoma). In a few lines: as §1
In assay [10] the test system is MPP-89 (Mesothelioma). In short, it runs like this:
as §1

The subject of assay [11] is LOXIMVI (Melanoma). In a few lines:
as §1

Assay [12] deals with SNU-449 (Hepatocellular Carcinoma). In a few lines: as §1
Assay [13] has as its system BFTC-909 (Kidney Carcinoma). In short, it runs like this: as §1
In assay [14] the test system is KMRC-20 (Kidney Carcinoma). In short, it runs like this:
as §1

For assay [15], the system named is CAL-33 (Oral Cavity Carcinoma). In short, it runs like this:
as §1

Assay [16] relates to HH (T-Cell Non-Hodgkin's Lymphoma). In short, it runs like this: as §1
Assay [17] relates to ALL-PO (B-Lymphoblastic Leukemia). In a few lines:
as §1

Assay [18] deals with GAMG (Glioblastoma). In short, it runs like this: as §1
Assay [19] deals with KYAE-1 (Esophageal Adenocarcinoma). In short, it runs like this:
as §1

In assay [20] the test system is BE-13 (T-Lymphoblastic Leukemia). In a few lines: as §1

As for `CC(=O)c1c(C)c2cnc(Nc3ccc(N4CCNCC4)cn3)nc2n(C2CCCC2)c1=O` [Palbociclib] + Cc1c2c(nn1C)CSCc1cc(n(C)n1)CSc1cc(c3ccccc3c1)OCCCc1c(C(=O)O)n(C)c3c-2c(Cl)ccc13 [AZD5991] (first compound max 10 µM, 7x7, partner max 1 µM), the “combination Emax” value in assay [1] worked out at 0.29; in assay [2], 0.281; in [3] it was 0.215; in assay [4], 0.288; in [5] it was 0.928; in assay [6], 0.207. Also, the “combination Emax” value was 0.266 in assay [7]; 0.0925 in [8]; 0.418 in [9]; 0.261 in assay [10]; 0.543 in assay [11]; 0.335 in assay [12]. Moreover, the “combination Emax” value in [13] amounted to 0.406; in [14] it was 0.291; in assay [15], 0.291; in [16], 0.911; in assay [17], 1; in [18] it was 0.305. The “combination Emax” value came out at 0.126 in [19] and 0.815 in assay [20].

With `COc1cccc(OCCCN)c1-c1cc(Nc2cnc(C#N)cn2)n[nH]1` [Prexasertib] + C[C@@H]1COCCN1C2=NC(=NC(=C2)C3(CC3)[S@](=N)(=O)C)C4=C5C=CNC5=NC=C4 [AZD6738] (first compound max 1 µM, 7x7, partner max 10 µM), the “combination Emax” value in [1] turned out to be 0.771; in [2], 0.356; in assay [3], 0.34; in assay [4], 0.555; in assay [5], 1; in assay [6], 0.796. Moreover, the “combination Emax” value came to 0.581 in [7]; 0.916 in assay [8]; 0.526 in assay [9]; 0.724 in [10]; 0.849 in [11]; 0.282 in assay [12]. In addition, the “combination Emax” value in [13] came to 0.94; in [14], 0.881; in assay [15] it was 0.916; in assay [16] it was 0.674; in assay [17], 0.982; in [18], 0.874. In addition, the “combination Emax” value in assay [19] amounted to 0.573; in assay [20], 0.967.

Regarding `Cc1c2c(nn1C)CSCc1cc(n(C)n1)CSc1cc(c3ccccc3c1)OCCCc1c(C(=O)O)n(C)c3c-2c(Cl)ccc13` [AZD5991] + CN(C)CCCOc1ccc(-c2ccc3ncc4c(c3c2)n(C2CCOCC2)c(=O)n4C)cn1 [AZD0156] (first compound max 1 µM, 7x7, partner max 1 µM), the “combination Emax” value in [1] was 0.219; in assay [2], 0.733; in assay [3] it was 0.252; in assay [4], 0.169; in [5] it was 0.92; in assay [6], 0.162. Moreover, the “combination Emax” value in assay [7] was found to be 0.225; in assay [8], 0.181; in [9], 0.401; in [10] it was 0.182; in assay [11], 0.363; in assay [12], 0.25. In addition, the “combination Emax” value in [13] was determined as 0.239; in [14], 0.218; in [15], 0.185; in assay [16], 0.756; in assay [17], 1; in assay [18] it was 0.255. For the same compound, the “combination Emax” value worked out at 0.177 in assay [19] and 0.445 in assay [20].

For `COc1cccc(OCCCN)c1-c1cc(Nc2cnc(C#N)cn2)n[nH]1` [Prexasertib] + CCc1c2c(nc3ccc(O)cc13)-c1cc3c(c(=O)n1C2)COC(=O)[C@]3(O)CC [SN-38] (first compound max 1 µM, 7x7, partner max 0.3 µM), the “combination Emax” value in assay [1] came to 0.86; in assay [2] it was 0.972; in assay [3], 0.861; in assay [4], 0.653; in assay [5] it was 1; in assay [6] it was 0.871. The “combination Emax” value in assay [7] came out at 0.536; in [8], 0.996; in assay [9] it was 0.848; in assay [10], 0.897; in [11], 0.875; in assay [12], 0.531. In addition, the “combination Emax” value in assay [13] was 0.996; in [14], 0.982; in assay [15], 0.957; in assay [16], 0.829; in [17] it was 0.993; in [18] it was 0.993. Besides, the results for the “combination Emax” value in assay [19] and in assay [20] were 0.79 and 1, respectively.

For `CN(C)CCCOc1ccc(-c2ccc3ncc4c(c3c2)n(C2CCOCC2)c(=O)n4C)cn1` [AZD0156] + O=C(c1cc(Cc2n[nH]c(=O)c3ccccc23)ccc1F)N1CCN(C(=O)C2CC2)CC1 [Olaparib] (first compound max 3 µM, partner max 3 µM), the “combination Emax” value in assay [1] turned out to be 0.0777; in [2], 0.512; in [3], 0.16; in assay [4], 0.283; in [5], 0.879; in assay [6], 0.37. Moreover, the “combination Emax” value came out at 0.197 in assay [7]; 0.0996 in assay [8]; 0.233 in assay [9]; 0.235 in [10]; 0.377 in [11]; 0.0695 in assay [12]. The “combination Emax” value in [13] turned out to be 0.527; in assay [14], 0.189; in [15], 0.352; in [16] it was 0.038; in assay [17], 0.505; in [18], 0.336. Also, the results for the “combination Emax” value in [19] and in [20] were 0.271 and 0.428, respectively.

Take `COc1nnc2ccc(N3CCC(c4ccc(OCCN5CCN(C)C(=O)[C@H]5C)cc4)CC3)nn12` [AZD5153] + Cn1cnc2c(F)c(Nc3ccc(Br)cc3Cl)c(C(=O)NOCCO)cc21 [Selumetinib] (first compound max 1 µM, 7x7, partner max 10 µM): the “combination Emax” value worked out at 0.441 in assay [1]; 0.87 in [2]; 0.885 in assay [3]; 0.477 in assay [4]; 0.954 in assay [5]; 0.794 in assay [6]. The “combination Emax” value in [7] was found to be 0.645; in assay [8], 0.336; in assay [9], 0.413; in assay [10], 0.554; in [11], 0.877; in [12] it was 0.243. Further, the “combination Emax” value in assay [13] is 0.488; in assay [14], 0.414; in assay [15], 0.708; in [16], 0.42; in [17], 0.88; in assay [18], 0.527. For the same compound, the “combination Emax” value in assay [19] was 0.116; in assay [20] it was 0.672.
